Measured values reported in patent publication US4847254A, “CNS affecting 5-oxy-3-aminomethyl-dihydro-benzofurans and benzothiophenes” (H. Lundbeck A/S, priority 1987, dated 1989).

Experiments:
Format in all cases: in vivo, rat (Wistar)
DA-receptor = experiment: Contralateral circling in rats with unilateral 6-hydroxy-DA (6-OHDA) lesions; for 6-OHDA Contr. Circle. rats (sc) Duration: test concentration or dose not given here; details: 6-OHDA-lesioned rats; for 6-OHDA Contr. Circle. rats (sc) ED50: doses calculated as the free amine; for 6-OHDA Contr. Circle. rats (sc) Duration: duration given instead of ED50
Method: Furthermore, the potency of the drug to induce contralateral circling behaviour in 6-hydroxy-DA-lesioned rats was determined. The specificity of this receptor resembles that of the […] DA receptors mediating motility inhibition.
The experiments were made according to published methods, using rats of the Wistar strain.
Therefore, also the ability of a test compound to induce contralateral circling in rats with unilateral 6-hydroxy-DA lesions was evaluated (loc cit.).

[1] = test system: postsynaptic DA-receptors; experiment: Reversal of locomotor depression (hypomotility) in reserpine plus alpha-methyl-p-tyrosine pretreated rats
DA-autoreceptors = experiment: Inhibition of spontaneous locomotor activity (motility inhibition) in rats; details: doses calculated as the free amine

SMILES	6-OHDA Contr. Circle. rats (sc) ED50 (DA-receptor)	Reserpin α-Mt Rev. rats (sc) ED50 [1]	Motility Inh. rats (sc) ED50 (DA-autoreceptors)	Reserpin α-Mt Rev. rats (sc) % at 5 μmol/kg [1]	6-OHDA Contr. Circle. rats (sc) Duration (DA-receptor)
CCN(CC)CC1CCc2ccc(O)cc21 (single isomer, unassigned; (+)) [Lu 22-106, (+) N,N-diethyl-6-hydroxy-1-indanmethylamine]	0.36 µmol/kg	14 µmol/kg	1.1 µmol/kg	–	–
CCCN(CCC)CC1COc2ccc(O)cc21 (single isomer, unassigned; (+)) [Lu 24-122, (+)-5-hydroxy-2,3-dihydro-N,N-dipropyl-3-benzofuranmethylamine]	0.16 µmol/kg	–	0.81 µmol/kg	–	–
CCCN(C)CC1COc2ccc(O)cc21 (single isomer, unassigned; (+)) [Lu 25-020, (+)-5-hydroxy-2,3-dihydro-N-methyl-N-propyl-3-benzofuranmethylamine]	0.95 µmol/kg	65 µmol/kg	4.1 µmol/kg	–	–
CCCN(CCC)CC1CCc2ccc(O)cc21 (single isomer, unassigned; (-)) [Lu 22-049, (-)-N,N-dipropyl-6-hydroxy-1-indanmethylamine]	0.18 µmol/kg	4.5 µmol/kg	0.26 µmol/kg	–	–
CCCN(CCC)CC1CCc2ccc(O)cc21 (single isomer, unassigned; (-)) [Lu 22-050, (-)-N,N-dipropyl-6-hydroxy-1-indanmethylamine]	0.45 µmol/kg	60 µmol/kg	1.3 µmol/kg	–	–
CCN(CC)CC1CCc2ccc(O)cc21 (single isomer, unassigned; (-)) [Lu 22-105, (-) N,N-diethyl-6-hydroxy-1-indanmethylamine]	1.2 µmol/kg	120 µmol/kg	0.87 µmol/kg	–	–
CCCN(CCC)CC1COc2ccc(O)cc21 (single isomer, unassigned; (-)) [Lu 24-121, (-)-5-hydroxy-2,3-dihydro-N,N-dipropyl-3-benzofuranmethylamine]	1.7 µmol/kg	86 µmol/kg	5.4 µmol/kg	–	–
CCCN(C)CC1COc2ccc(O)cc21 (single isomer, unassigned; (-)) [Lu 25-021, (-)-5-hydroxy-2,3-dihydro-N-methyl-N-propyl-3-benzofuranmethylamine]	5.2 µmol/kg	290 µmol/kg	5.4 µmol/kg	–	–
CCCN(CCC)CC1CCc2ccc(O)cc21 (stereo not drawn) [Lu 21-051, N,N-dipropyl-6-hydroxy-1-indanmethylamine]	0.35 µmol/kg	–	0.45 µmol/kg	44%	–
CCN(CC)CC1CCc2ccc(O)cc21 (stereo not drawn) [Lu 21-096, N,N-diethyl-6-hydroxy-1-indanmethylamine]	0.19 µmol/kg	–	1.0 µmol/kg	50%	–
CCCN(CCC)CC1CCc2ccc(OC)cc21 (stereo not drawn) [Lu 21-097, N,N-dipropyl-6-methoxy-1-indanmethylamine]	> 14 µmol/kg	–	> 14 µmol/kg	–	–
CN(C)CC1CCc2ccc(O)cc21 (stereo not drawn) [Lu 21-112, N,N-dimethyl-6-hydroxy-1-indanmethylamine]	0.95 µmol/kg	12 µmol/kg	5.7 µmol/kg	–	–
CCCN(CCc1ccccc1)CC1CCc2ccc(O)cc21 (stereo not drawn) [Lu 21-113, 6-Hydroxy-N-propyl-N-(2-phenylethyl)-1-indanmethylamine]	0.12 µmol/kg	–	0.51 µmol/kg	63%	–
CCCNCC1CCc2ccc(O)cc21 (stereo not drawn) [Lu 21-138, 6-Hydroxy-N-propyl-1-indanmethylamine]	10 µmol/kg	–	19 µmol/kg	–	–
CCCCN(CCCC)CC1CCc2ccc(O)cc21 (stereo not drawn) [Lu 22-028, N,N-Dibutyl-6-hydroxy-1-indanmethylamine]	> 14 µmol/kg	–	13 µmol/kg	–	–
CCN(CC)CC1CCc2ccc(OC(=O)C(C)(C)C)cc21 (stereo not drawn) [Lu 23-020, 6-pivaloyloxy-N,N-diethyl-1-indanmethylamine]	0.33 µmol/kg	–	0.84 µmol/kg	–	–
CCCN(CCC)CC1COc2ccc(O)cc21 (stereo not drawn) [Lu 23-130, 5-Hydroxy-2,3-dihydro-N,N-dipropyl-3-benzofuranmethylamine]	0.35 µmol/kg	3.4 µmol/kg	0.5 to 2 µmol/kg	–	–
CCCN(CCC)CC1CCc2ccc(OC(=O)c3ccccc3C)cc21 (stereo not drawn) [Lu 24-028]	–	–	–	–	18 h
CCCN(CCC)CC1CCc2ccc(OC(=O)c3c(F)cccc3F)cc21 (stereo not drawn) [Lu 24-029, 6-(2,6-Difluorbenzoyloxy)-N,N-dipropyl-1-indanmethylamine]	–	–	–	–	4 h
CCCN(CCC)CC1CCc2ccc(OC(=O)c3ccccc3OC)cc21 (stereo not drawn) [Lu 24-030, 6-(2-methoxybenzoyloxy)-N,N-dipropyl-1-indanmethylamine]	–	–	–	–	4 h
CCCN(CCC)CC1CCc2ccc(OC(=O)c3ccccc3Cl)cc21 (stereo not drawn) [Lu 24-031, 6-(2-chlorobenzoyloxy)-N,N-dipropyl-1-indanmethylamine]	–	–	–	–	4 h
CCCN(CCC)CC1CCc2ccc(OC(=O)c3ccccc3OC(C)=O)cc21 (stereo not drawn) [Lu 24-032, 6-(2-acetyloxybenzoyloxy)-N,N-dipropyl-1-indanmethylamine]	–	–	–	–	4 h
CCCN(CCC)CC1CCc2ccc(OC(=O)c3ccccc3F)cc21 (stereo not drawn) [Lu 24-033, 6-(2-fluorbenzoyloxy)-N,N-dipropyl-1-indanmethylamine]	–	–	–	–	4 h
CCCN(CCC)CC1COc2ccc(OC(=O)C(C)(C)C)cc21 (stereo not drawn) [Lu 24-042, 5-Pivaloyloxy-2,3-dihydro-N,N-dipropyl-3-benzofuranmethylamine]	0.40 µmol/kg	–	–	–	–
CCCN(CCC)CC1COc2ccc(OC(=O)c3ccccc3C)cc21 (stereo not drawn) [Lu 24-074, 5-(2-Methylbenzoyloxy)-2,3-dihydro-N,N-dipropyl-3-benzofuranmethylamine]	–	–	–	–	15 h
CCCN(CCc1ccccc1)CC1COc2ccc(O)cc21 (stereo not drawn) [Lu 24-084, 5-Hydroxy-2,3-dihydro-N-(2-phenylethyl)-N-propyl-3-benzofuranmethylamine]	0.94 µmol/kg	11 µmol/kg	1.9 µmol/kg	–	–
CCCN(CCC)CC1COc2ccc(OC(=O)NC(C)C)cc21 (stereo not drawn) [Lu 25-158, 5-isopropylaminocarbonyloxy-2,3-dihydro-N,N-dipropyl-3-benzofuranmethylamine]	–	–	–	–	4 h
CCCN(CCC)CC1COc2ccc(OC(=O)c3ccccc3N)cc21 (stereo not drawn) [Lu 25-165, 5-(2-aminobenzoyloxy)-2,3-dihydro-N,N-dipropyl-3-benzofuranmethylamine]	–	–	–	–	> 6 h
CCN(CC)CC1CCc2ccc(OC(=O)Nc3ccc(C(C)C)cc3)cc21 (stereo not drawn) [Lu 25-177, 6-(4-isopropylphenylaminocarbonyloxy)-N,N-diethyl-1-indanmethylamine]	–	–	–	–	> 6 h
